Assays:
Type in all cases: cell-based
A431 cells = test: In vitro tumor cell proliferation assay (Cell Titer-Glo) in A431 cells; settings: Homo sapiens, A-431, 72 h, A431 human epidermoid carcinoma overexpressing HER1; 72 hours exposure; read-out: IC50, activities in A431 cell lines
Procedure, shortened: (§1)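 Viability after 72 h drug exposure at 37 °C was read as CellTiter-Glo ATP luminescence, giving IC50. Cells (2.5×10^3/well, RPMI + 10% FBS) were compound-treated one day post-seeding, 0.1% DMSO final: A431 overexpresses HER1, N87 overexpresses HER2 and HER1.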

N87 = test: In vitro tumor cell proliferation assay (Cell Titer-Glo) in N87 cells; settings: N87 human gastric carcinoma overexpressing HER2 and HER1; 72 hours exposure; read-out: IC50, activities in N87 cell lines
Procedure, shortened: as §1

H1975 cells = test: In vitro tumor cell proliferation assay (Cell Titer-Glo) in H1975 cells; settings: NCI-H1975; H1975 human NSCLC expressing mutant HER1 (L858R,T790M); 72 hours exposure; read-out: IC50, activities in H 1975 cell lines
Procedure, shortened: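 After 72 h compound exposure at 37° C (top 10 uM down to 64 pM, 0.1% DMSO), viability of EGFR L858R/T790M-mutant H1975 cells was read as ATP luminescence.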

Row | IC50 (A431 cells) [nM] | IC50 (N87) [nM] | IC50 (H1975 cells) [nM] | SMILES
1 | 200 to 1000 | < 200 | 200 to 1000 | CC(C)N(C)C/C=C/C(=O)N1CCc2c(sc3ncnc(Nc4ccc(OCc5ccccn5)c(Cl)c4)c23)C1 [Example 63, N-[3-chloro-4-(pyridin-2-ylmethoxy)phenyl]-7-{(2E)-4-[isopropyl(methyl)amino]but-2-enoyl}-5,6,7,8-tetrahydropyrido [4′,3′:4,5]thieno[2,3-d]pyrimidin-4-amine]
2 | 200 to 1000 | < 200 | 200 to 1000 | CC1CCCCN1C/C=C/C(=O)N1CCc2c(sc3ncnc(Nc4ccc(OCc5ccccn5)c(Cl)c4)c23)C1 (stereo not drawn) [Example 64]
3 | 200 to 1000 | < 200 | < 200 | CN(C/C=C/C(=O)N1CCc2c(sc3ncnc(Nc4ccc(OCc5ccccn5)c(Cl)c4)c23)C1)C(C)(C)C [Example 65, 7-{(2E)-4-[tert-butyl(methyl)amino]but-2-enoyl}-N-[3-chloro-4-(pyridin-2-ylmethoxy)phenyl]-5,6,7,8-tetrahydropyrido [4′,3′:4,5]thieno[2,3-d]pyrimidin-4-amine]
4 | 200 to 1000 | < 200 | 200 to 1000 | CC(C)CN(C)C/C=C/C(=O)N1CCc2c(sc3ncnc(Nc4ccc(OCc5ccccn5)c(Cl)c4)c23)C1 [Example 66, N-[3-chloro-4-(pyridin-2-ylmethoxy)phenyl]-7-{(2E)-4-[isobutyl(methyl)amino]but-2-enoyl}-5,6,7,8-tetrahydropyrido [4′,3′:4,5]thieno[2,3-d]pyrimidin-4-amine]
5 | 200 to 1000 | < 200 | 200 to 1000 | CC1CCCN(C/C=C/C(=O)N2CCc3c(sc4ncnc(Nc5ccc(OCc6ccccn6)c(Cl)c5)c34)C2)C1 (stereo not drawn) [Example 67, N-[3-chloro-4-(pyridin-2-ylmethoxy)phenyl]-7-[(2E)-4-(3-methylpiperidin-1-yl)but-2-enoyl]-5,6,7,8-tetrahydropyrido [4′,3′:4,5]thleno[2,3-d]pyrimidin-4-amine]
6 | 200 to 1000 | < 200 | 200 to 1000 | O=C(/C=C/CN1CCCCCC1)N1CCc2c(sc3ncnc(Nc4ccc(OCc5ccccn5)c(Cl)c4)c23)C1 [Example 68, 7-[(2E)-4-azepan-1-ylbut-2-enoyl]-N-[3-chloro-4-(pyridin-2-ylmethoxy)phenyl]-5,6,7,8-tetrahydropyrido [4′,3′:4,5]thieno[2,3-d]pyrimidin-4-amine]
7 | 200 to 1000 | < 200 | 200 to 1000 | O=C(/C=C/CN1CCCC(CO)C1)N1CCc2c(sc3ncnc(Nc4ccc(F)c(Cl)c4)c23)C1 (stereo not drawn) [Example 69, {1-[(2E)-4-{4-[(3-chloro-4-fluorophenyl)amino]-5,8-dihydropyrido [4′,3′:4,5]thieno[2,3-d]pyrimidin-7(6H)-yl}-4-oxobut-2-en-1-yl]piperidin-3-yl}methanol]
8 | 1000 to 10000 | < 200 | < 200 | CCN(C/C=C/C(=O)N1CCc2c(sc3ncnc(Nc4ccc(OCc5ccccn5)c(Cl)c4)c23)C1)C(C)C [Example 70, N-[3-chloro-4-(pyridin-2-ylmethoxy)phenyl]-7-{(2E)-4-[ethyl(isopropyl)amino]but-2-enoyl}-5,6,7,8-tetrahydropyrido [4′,3′:4,5]thieno[2,3-d]pyrimidin-4-amine]
9 | 1000 to 10000 | < 200 | 200 to 1000 | CCN(CC)C/C=C/C(=O)N1CCc2c(sc3ncnc(Nc4ccc(OCc5cnccn5)c(Cl)c4)c23)C1 [Example 72, N-[3-chloro-4-(pyrazin-2-ylmethoxy)phenyl]-7-[(2E)-4-(diethylamino)but-2-enoyl]-5,6,7,8-tetrahydropyrido [4′,3′:4,5]thieno[2,3-d]pyrimidin-4-amine]
10 | 1000 to 10000 | < 200 | 1000 to 10000 | CCN(CC)C/C=C/C(=O)N1CCc2c(sc3ncnc(Nc4ccc(OCc5cccc(C)n5)c(Cl)c4)c23)C1 [Example 73, N-{3-chloro-4-[(6-methylpyridin-2-yl)methoxy]phenyl}-7-[(2E)-4-(diethylamino)but-2-enoyl]-5,6,7,8-tetrahydropyrido [4′,3′:4,5]thieno[2,3-d]pyrimidin-4-amine]
11 | 1000 to 10000 | < 200 | 1000 to 10000 | Cc1cccc(COc2ccc(Nc3ncnc4sc5c(c34)CCN(C(=O)/C=C/CN(C)C)C5)cc2Cl)n1 [Example 74, N-{3-chloro-4-[(6-methylpyridin-2-yl)methoxy]phenyl}-7-[(2E)-4-(dimethylamino)but-2-enoyl]-5,6,7,8-tetrahydropyrido [4′,3′:4,5]thieno[2,3-d]pyrimidin-4-amine]
12 | 1000 to 10000 | < 200 | 200 to 1000 | Cc1cccc(COc2ccc(Nc3ncnc4sc5c(c34)CCN(C(=O)/C=C/CN3CCCCC3)C5)cc2Cl)n1 [Example 75, N-{3-chloro-4-[(6-methylpyridin-2-yl)methoxy]phenyl}-7-[(2E)-4-piperidin-1-ylbut-2-enoyl]-5,6,7,8-tetrahydropyrido [4′,3′:4,5]thieno[2,3-d]pyrimidin-4-amine]
13 | 1000 to 10000 | < 200 | 1000 to 10000 | CCN(C)C/C=C/C(=O)N1CCc2c(sc3ncnc(Nc4ccc(OCc5cccc(C)n5)c(Cl)c4)c23)C1 [Example 76, N-{3-chloro-4-[(6-methylpyridin-2-yl)methoxy]phenyl}-7-{(2E)-4-[ethyl(methyl)amino]but-2-enoyl}-5,6,7,8-tetrahydropyrido [4′,3′:4,5]thieno[2.3-d]pyrimidin-4-amine]
14 | 1000 to 10000 | < 200 | 200 to 1000 | Cc1cccc(COc2ccc(Nc3ncnc4sc5c(c34)CCN(C(=O)/C=C/CN(C)C(C)C)C5)cc2Cl)n1 [Example 77, N-{3-chloro-4-[(6-methylpyridin-2-yl)methoxy]phenyl}-7-{(2E)-4-[isopropyl(methyl)amino]but-2-enoyl}-5,6,7,8-tetrahydropyrido [4′,3′:4,5]thieno[2,3-d]pyrimidin-4-amine]

Second part, the compound before the results:

Row | SMILES | IC50 (A431 cells) [nM] | IC50 (N87) [nM] | IC50 (H1975 cells) [nM]
15 | CC1CN(C/C=C/C(=O)N2CCc3c(sc4ncnc(Nc5ccc(OCc6ccccn6)c(Cl)c5)c34)C2)CC(C)O1 (stereo not drawn) [Example 53, N-[3-chloro-4-(pyridin-2-ylmethoxy)phenyl]-7-((2E)-4-(2,6-dimethylmorpholin-4-yl)but-2-enoyl]-5,6,7,8-tetrahydropyrido [4′,3′:4,5]thieno[2,3-d]pyrimidin-4-amine] | 1000 to 10000 | < 200 | 1000 to 10000
16 | CN(C/C=C/C(=O)N1CCc2c(sc3ncnc(Nc4ccc(F)c(Cl)c4)c23)C1)C1CCCCC1 [Example 54, N-(3-chloro-4-fluorophenyl)-7-{(2E)-4-[cyclohexyl(methyl)amino]but-2-enoyl}-5,6,7,8-tetrahydropyrido [4′,3′:4,5]thieno[2,3-d]pyrimidin-4-amine] | 200 to 1000 | < 200 | 200 to 1000
17 | CC1CCCCN1C/C=C/C(=O)N1CCc2c(sc3ncnc(Nc4ccc(F)c(Cl)c4)c23)C1 (stereo not drawn) [Example 56, N-(3-chloro-4-fluorophenyl)-7-[(2E)-4-(2-methylpiperidin-1-yl)but-2-enoyl]-5,6,7,8-tetrahydropyrido [4′,3′:4,5]thieno[2,3-d]pyrimidin-4-amine] | 200 to 1000 | < 200 | 200 to 1000
18 | O=C(/C=C/CN1CCC(CCO)CC1)N1CCc2c(sc3ncnc(Nc4ccc(F)c(Cl)c4)c23)C1 [Example 57, 2-{1-[(2E)-4-{4-[(3-chloro-4-fluorophenyl)amino]-5,8-dihydropyrido [4′,3′:4,5]thieno[2,3-d]pyrimidin-7(6H)-yl}-4-oxobut-2-en-1-yl]piperidin-4-yl}ethanol] | 1000 to 10000 | < 200 | 200 to 1000
19 | O=C(/C=C/CN1CCC(O)CC1)N1CCc2c(sc3ncnc(Nc4ccc(F)c(Cl)c4)c23)C1 [Example 58, 1-[(2E)-4-{4-[(3-chloro-4-fluorophenyl)amino]-5,8-dihydropyrido [4′,3′:4,5]thieno[2,3-d]pyrimidin-7(6H)-yl}-4-oxobut-2-en-1-yl]piperidin-4-ol] | 1000 to 10000 | < 200 | 1000 to 10000
20 | CC1CCCN1C/C=C/C(=O)N1CCc2c(sc3ncnc(Nc4ccc(F)c(Cl)c4)c23)C1 (stereo not drawn) [Example 59, N-(3-chloro-4-fluorophenyl)-7-[(2E)-4-(2-methylpyrrolidin-1-yl)but-2-enoyl]-5,6,7,8-tetrahydropyrido [4′,3′:4,5]thieno[2,3-d]pyrimidin-4-amine] | < 200 | < 200 | < 200
21 | CC1CCCC(C)N1C/C=C/C(=O)N1CCc2c(sc3ncnc(Nc4ccc(F)c(Cl)c4)c23)C1 (stereo not drawn) [Example 60, N-(3-chloro-4-fluorophenyl)-7-[(2E)-4-(2,6-dimethylpiperidin-1-yl)but-2-enoyl]-5,6,7,8-tetrahydropyrido [4′,3′:4,5]thieno[2,3-d]pyrimidin-4-amine] | 200 to 1000 | < 200 | 200 to 1000
22 | CCN(C/C=C/C(=O)N1CCc2c(sc3ncnc(Nc4ccc(F)c(Cl)c4)c23)C1)C1CCCCC1 [Example 61, N-(3-chloro-4-fluorophenyl)-7-{(2E)-4-[cyclohexyl(ethyl)amino]but-2-enoyl}-5,6,7,8-tetrahydropyrido [4′,3′:4,5]thieno[2,3-d]pyrimidin-4-amine] | 200 to 1000 | < 200 | 200 to 1000
23 | O=C(/C=C/CN1CCN(CCO)CC1)N1CCc2c(sc3ncnc(Nc4ccc(OCc5ccccn5)c(Cl)c4)c23)C1 [Example 62, 2-(4-{(2E)-4-[4-{[3-chloro-4-(pyridin-2-ylmethoxy)phenyl]amino}-5,8-dihydropyrido [4′,3′:4,5]thieno[2,3-d]pyrimidin-7(6H)-yl]-4-oxobut-2-en-1-yl}piperazin-1-yl)ethanol] | 200 to 1000 | < 200 | 200 to 1000

From US8501755B2, “Tetrahydropyridothienopyrimidine compounds and methods of use thereof” (Bayer Intellectual Property GmbH, priority 2006, dated 2013)
